Data published in patent publication US20080200526A1, “Composition for the Prevention and Treatment of Allergic Inflammatory Disease” (priority 2004, published 2008).

Assays:
[1] = Change in body weight gain, mouse model of ovalbumin-induced asthma; format: in vivo; conditions: mean ± SD, in g (unit assumed)
Method: (§1) The benzamidine compound of Chemical Formula 1 was assayed for therapeutic effect on allergic inflammation in mouse models of ovalbumin-induced asthma. Starting at the sensitization with ovalbumin, the administration of the benzamidine compound was for 18 consecutive days. The experimental animals were re-exposed to ovalbumin 15 days after the sensitization and then sacrificed 3 days after the re-exposure. Changes in lung weight, cellular components of peripheral blood and bronchoalveolar lavage fluid, and lung histopathology were observed.
(§2) A total of 20 female C57BL/6 mice (6-week-old, BioGenomics, Korea) was adapted to a laboratory environment for 6 days before being used in earnest experiments. While being housed at a density of five in a plastic cage, the experimental animals were bred in a breeding room with controlled temperature (20 to 25° C.) and humidity (30 to 35%). Under light-dark cycles of 12 hours, mice were allowed to have free access to feedstuff and tap water. While asthma was induced in 15 mice by ovalbumin, 5 mice were used as a non-treated group.
(§3) 100 mg and 200 mg of N-hydroxy-4-{5-[4-(5-isopropyl-2-methyl-1,3-thiazol-4-yl)phenoxy]pentoxy}-benzamidine were completely dissolved in 5 ml of sterilized distilled water. The benzamidine compound in the solutions was orally administered at doses of 100 mg and 200 mg per kg of body weight once a day from the day of the sensitization with ovalbumin. The control group was administered with equal volumes of sterilized distilled water in the same manner.
(§4) A solution of 200 μg of ovalbumin (Grade V; Sigma, St. Louis, Mo., USA) and 180 mg of aluminum hydroxide (Al(OH)3, dried powder gel; Aldrich, Milwaukee, USA) in 4 ml of physiological saline was allowed to stand at 4° C. overnight and was administered to the experimental animals (200 μl, abdominal injection) for sensitization. As for the non-treated group, a solution of only aluminum hydroxide in saline was injected. 15 days after sensitization, a 1.5% ovalbumin solution was sprayed in air using a nebulizer, followed by exposing the experimental animals to the spray for 10 min to induce asthma therein. The non-treated group was exposed only to saline in the same manner. All the experimental animals were sacrificed 3 days after the exposure.
All the experimental animals were measured for body weight 1, 7, 14, 16 and 17 days after administration. In order to reduce difference among individuals due to feedstuff intake, all experimental animals were starved for 18 hours or more on the beginning day of the administration and on the sacrificing day before weight measurement. To minimize the difference of change in body weight of individual animals, body weight gains during time periods of the sensitization, the asthma induction after exposure and the whole experiment were calculated.

[2] = test system: mouse models of ovalbumin-induced asthma; test: Lung weight, mouse model of ovalbumin-induced asthma; format: in vivo; conditions: 18 days, mean ± SD; for Lung Relative Wt.: percentage of body weight
Method: as §1, §2, §3, §4
On the final day of experiment, the lungs were separated from adjacent organs. The removed lungs were weighed in grams. To minimize errors due to the difference in body weight among individual animals, the relative weight of the lungs was calculated as a percentage of body weight using the following mathematic formula 1.

[3] = test system: mouse models of ovalbumin-induced asthma; test: Lung histopathological observation and histomorphology; format: in vivo; conditions: for Alveolar Area (proportion of alveolar lumen in lung tissue) / Counts of goblet Cells Brochiole / Counts of goblet Cells Bronchus / Wall Thick. Brochiole / Wall Thick. Bronchus: 18 days, mean ± SD
Method: as §1, §2, §3, §4
The lungs removed after asthma induction were fixed in 10% neutral formalin and embedded in paraffin. The paraffin-embedded tissue was sliced at a thickness of 3 to 4 μm, stained with hematoxylin-eosin or Masson's trichrome and observed through an optical microscope.
From the lung tissue specimen prepared above, alveolar areas (proportion of alveolar lumen in lung tissue), populations of the goblet cells present in the bronchus and the bronchiole, and wall thicknesses of the bronchus and the bronchiole were examined using an analysis Image processing system (SIS Germany). The alveolar areas are represented as percentages, the populations of the goblets cells in the bronchus and bronchiole as counts per 1,000 cells, and the wall thickness of the bronchus and bronchiole in μm in Table 5.

[4] = test system: mouse models of ovalbumin-induced asthma; test: Total count of leukocytes in blood and fractional calculation of leukocytes; format: in vivo; conditions: 18 days; for Total leukocytes in blood: mean ± SD; for Basophils in blood / Eosinophils in blood / Lymphocytes in blood / Monocytes in blood / Neutrophils in blood: portion per 200 leukocytes
Method: as §1, §2, §3, §4
On the final day of experiment, all the experimental animals were etherized and underwent laparotomy to expose the abdominal vena cava, from which 1 ml of blood was then taken. Using a hemocytometer, a blood sample was measured for total leukocyte counts in a ×10^3/1 mm^3 unit. Immediately after blood collection, the blood sample was smeared on slide glasses, fixed with methanol, and stained with Giemsa. And then, lymphocytes, eosinophils, neutrophils, monocytes, and basophils were calculated for their respective portions per 200 leukocytes and are represented as percentages in Table 3, below.

[5] = test system: mouse models of ovalbumin-induced asthma; test: Fractional count of cellular components of bronchoalveolar lavage fluid; format: in vivo; conditions: 18 days, mean ± SD
Method: as §1, §2, §3, §4
On the final day of experiment, secretions present in bronchi and alveola were examined for cytological constitution. To this end, after being etherized, the experimental animals were operated to open the cervical region and the thorax. The jugular vein was allowed to bleed, followed by endotracheal intubation. 3 ml of phosphate buffered saline was injected twice through the tube and the thorax was massaged for 30 sec to obtain cell suspension from the lungs. The cell suspension was centrifuged at 3000 rpm for 30 min and resuspended in DPBS (Gibco BRL, NY, USA). After the cell suspension was smeared on a slide glass, the cells were stained with Giemsa. A total count of the whole cells present in the smear and fractional counts of neutrophils, eosinophils, basophils, macrophages, and epithelioid cells were measured and are given in Table 4, below.

asthma = conditions: clinical test, Lilly; Evans D J, Thorax 1996; cited from earlier work
bronchial asthma = conditions: Sakurada T. et al., Eur J Pharmacol 1999, cited from earlier work

In the case of `Cc1nc(-c2ccc(OCCCCCOc3ccc(C(=N)NO)cc3)cc2)c(C(C)C)s1` [Cpd. of Formula 1, N-hydroxy-4-{5-[4-(5-isopropyl-2-methyl-1,3-thiazol-4-yl)phenoxy]pentoxy}-benzamidine], the “Body weight gain, Asthma induction period after exposure” value ([1]; 100 mg/kg orally once a day) was 0.34 ± 0.34, the “Body weight gain, Over whole experimental period” value ([1]; 100 mg/kg orally once a day) was 2.68 ± 0.52 and the “Body weight gain, Sensitization period” value ([1]; 100 mg/kg orally once a day) was 3.50 ± 0.51. The “Body weight gain, Asthma induction period after exposure” value ([1]; 200 mg/kg orally once a day) was 0.36 ± 0.59, the “Body weight gain, Over whole experimental period” value ([1]; 200 mg/kg orally once a day) was 2.90 ± 0.40 and the “Body weight gain, Sensitization period” value ([1]; 200 mg/kg orally once a day) was 3.08 ± 0.71. For the same molecule, the “Lung Absolute Wt.” value ([2]; 100 mg/kg orally once a day) was 0.128 ± 0.007 ## g, the “Lung Relative Wt.” value ([2]; 100 mg/kg orally once a day) was 0.697 ± 0.030 ## % and the “Lung Absolute Wt.” value ([2]; 200 mg/kg orally once a day) was 0.125 ± 0.008 # g. For the same molecule, the “Lung Relative Wt.” value ([2]; 200 mg/kg orally once a day) was 0.682 ± 0.030 ## %, the “Alveolar Area (proportion of alveolar lumen in lung tissue)” value ([3]; 100 mg/kg orally once a day) was 55.53 ± 4.26 # percentages and the “Counts of goblet Cells Brochiole” value ([3]; 100 mg/kg orally once a day) was 53.80 ± 11.73 ## counts per 1,000 cells. For the same molecule, the “Counts of goblet Cells Bronchus” value ([3]; 100 mg/kg orally once a day) was 317.60 ± 75.46 # counts per 1,000 cells, the “Wall Thick. Brochiole” value ([3]; 100 mg/kg orally once a day) was 27.73 ± 4.68 ## μm and the “Wall Thick. Bronchus” value ([3]; 100 mg/kg orally once a day) was 60.92 ± 8.53 # μm. For the same molecule, the “Alveolar Area (proportion of alveolar lumen in lung tissue)” value ([3]; 200 mg/kg orally once a day) was 61.62 ± 6.93 # percentages, the “Counts of goblet Cells Brochiole” value ([3]; 200 mg/kg orally once a day) was 42.80 ± 10.69 # counts per 1,000 cells and the “Counts of goblet Cells Bronchus” value ([3]; 200 mg/kg orally once a day) was 256.80 ± 71.58 # counts per 1,000 cells. For the same molecule, the “Wall Thick. Brochiole” value ([3]; 200 mg/kg orally once a day) was 24.79 ± 3.03 # μm, the “Wall Thick. Bronchus” value ([3]; 200 mg/kg orally once a day) was 40.69 ± 5.37 # μm and the “Inflammatory cell populations in tissues around the primary bronchiole and alveola and around bronchial epithelia (FIG. 1)” value ([3]; compared to the control group, 100 and 200 mg/kg, optical microscope) was “reduction of the inflammatory cell population in the tissues in a dose-dependent pattern”. The “Total leukocytes in blood” value ([4]; 100 mg/kg orally once a day) was 10.68 ± 1.76 ## ×10^3/1 mm^3, the Basophils in blood ([4]; 100 mg/kg orally once a day) was 0.10 ± 0.20% and the Eosinophils in blood ([4]; 100 mg/kg orally once a day) was 49.60 ± 15.79 %. For the same molecule, the Lymphocytes in blood ([4]; 100 mg/kg orally once a day) was 41.70 ± 12.90 %, the Monocytes in blood ([4]; 100 mg/kg orally once a day) was 3.70 ± 1.60% and the Neutrophils in blood ([4]; 100 mg/kg orally once a day) was 4.90 ± 2.90 %. The “Total leukocytes in blood” value ([4]; 200 mg/kg orally once a day) was 10.44 ± 1.81 ## ×10^3/1 mm^3, the Basophils in blood ([4]; 200 mg/kg orally once a day) was 0.00 ± 0.00% and the Eosinophils in blood ([4]; 200 mg/kg orally once a day) was 36.90 ± 8.33 # %. The Lymphocytes in blood ([4]; 200 mg/kg orally once a day) was 53.80 ± 5.50 # %, the Monocytes in blood ([4]; 200 mg/kg orally once a day) was 4.40 ± 1.70 % and the Neutrophils in blood ([4]; 200 mg/kg orally once a day) was 5.20 ± 2.00 %. For the same molecule, the “Basophils in bronchoalveolar lavage fluid” value ([5]; 100 mg/kg orally once a day) was 0.50 ± 0.50%, the “Epithelioids in bronchoalveolar lavage fluid” value ([5]; 100 mg/kg orally once a day) was 21.00 ± 14.77% and the “Lymphocytes in bronchoalveolar lavage fluid” value ([5]; 100 mg/kg orally once a day) was 56.90 ± 15.04%. The “Monocytes in bronchoalveolar lavage fluid” value ([5]; 100 mg/kg orally once a day) was 3.10 ± 3.73%, the “Neutrophils in bronchoalveolar lavage fluid” value ([5]; 100 mg/kg orally once a day) was 17.50 ± 8.06 % and the “eosinophils in bronchoalveolar lavage fluid” value ([5]; 100 mg/kg orally once a day) was 4.30 ± 1.44 %. For the same molecule, the “Basophils in bronchoalveolar lavage fluid” value ([5]; 200 mg/kg orally once a day) was 0.10 ± 0.22 %, the “Epithelioids in bronchoalveolar lavage fluid” value ([5]; 200 mg/kg orally once a day) was 15.50 ± 9.74% and the “Lymphocytes in bronchoalveolar lavage fluid” value ([5]; 200 mg/kg orally once a day) was 56.80 ± 22.52%. For the same molecule, the “Monocytes in bronchoalveolar lavage fluid” value ([5]; 200 mg/kg orally once a day) was 3.50 ± 2.57%, the “Neutrophils in bronchoalveolar lavage fluid” value ([5]; 200 mg/kg orally once a day) was 13.90 ± 9.85% and the “eosinophils in bronchoalveolar lavage fluid” value ([5]; 200 mg/kg orally once a day) was 3.60 ± 2.88 %.
For `CCCc1c(OCCCOc2cc(O)c(-c3ccc(F)cc3)cc2CC)cccc1Oc1ccccc1C(=O)O` [LY293111], the “Effect in treating asthma” value (asthma) is listed as “ineffective in treating asthma”.
For `COc1ccc(/C=C/CCCCOc2cccc(OCCCCC(=O)O)c2CCC(=O)O)cc1` [ONO-4057], the “Effect on bronchial asthma, in combination” value (bronchial asthma; in combination with the cysteinyl leukotriene receptor antagonist Zafirlukast) is listed as “medicinal effect on bronchial asthma” and the “Effect on bronchial asthma, used alone” value (bronchial asthma; used alone) is listed as “ineffective for the treatment thereof”.
